In BindingDB's records for doi:10.1016/j.ejmech.2017.02.016 (De Montfort University, 2017):

Legend:
[1] = Inhibition of human CYP1B1 expressed in HEK293 cells assessed as potentiation of cisplatin-induced cytotoxicity by measuring cisplatin EC50 at 0.016 uM by MTT assay (Rvb = 61 +/- 8 uM)
[2] = Inhibition of human CYP1B1 expressed in human A2780 cells assessed as potentiation of cisplatin-induced cytotoxicity by measuring cisplatin EC50 at 0.016 uM by MTT assay (Rvb = 40 +/- 4.9 uM)
[3] = Inhibition of human CYP1B1 expressed in HEK293 cells assessed as potentiation of cisplatin-induced cytotoxicity by measuring cisplatin EC50 at 0.018 uM by MTT assay (Rvb = 61 +/- 8 uM)
[4] = Inhibition of human CYP1B1 expressed in human A2780 cells assessed as potentiation of cisplatin-induced cytotoxicity by measuring cisplatin EC50 at 0.018 uM by MTT assay (Rvb = 40 +/- 4.9 uM)
[5] = Inhibition of human CYP1B1 expressed in HEK293 cells assessed as potentiation of cisplatin-induced cytotoxicity by measuring cisplatin EC50 at 0.02 uM by MTT assay (Rvb = 61 +/- 8 uM)
[6] = Inhibition of human CYP1B1 expressed in human A2780 cells assessed as potentiation of cisplatin-induced cytotoxicity by measuring cisplatin EC50 at 0.02 uM by MTT assay (Rvb = 40 +/- 4.9 uM)

Which EC50 [1] does the source give for `O=c1cc(-c2ccccc2)oc2c1ccc1ccccc12` here?
Its EC50 is 40 µM.

What about the EC50 [2] of the same molecule?
Its EC50 is 35 µM.

With `COc1ccc2cc(C(=O)/C=C/c3cccnc3)ccc2c1` as the molecule, how does the EC50 [3] read?
Its EC50 is 8.3 µM.

What about the EC50 [4] of the same molecule?
Its EC50 is 3.3 µM.

With `O=C(/C=C/c1ccc2ccccc2c1)c1cccnc1` as the molecule, how does the EC50 [5] read?
Its EC50 is 1 µM.

And the EC50 [6]?
Its EC50 is 0.5 µM.
